Experimental data published in US8053470B2, “Process for the preparation of polynuclear ferric hydroxide-saccaride complexes” (Chongqing Pharmaceutical Research Institute Co., Ltd., priority 2005, dated 2011).

Experiment: Isoelectric point of the iron-saccharide complex: pH at which its aqueous solution turns turbid on drop-wise addition of diluted hydrochloric acid (USP 27 iron sucrose injection method)
Assay type: physicochemical
Conditions: examples described in text; Example 1 measured by method of 27th version of USP
Source text: The term “isoelectric point” herein refers to a pH value at which the aqueous solution of iron-saccharide complexes turns turbid during the drop-wise addition of a diluted hydrochloric acid solution.

Substance | isoelectric point of the final product
Polynuclear Ferric Hydroxide-sucrose Complex [Example 1] | 4.4
Polynuclear Ferric Hydroxide-fructose Complex [Example 11] | 5.2
